Drawing on ChEMBL document CHEMBL1129949, “Correlation of antimalarial activity of artemisinin derivatives with binding affinity with ferroprotoporphyrin IX” (J Med Chem, 1997), this text covers IC50 for nine molecules.

pIC50: −log10 of the molar value.

The subject of this assay is Plasmodium falciparum. Put plainly: Mean of EC50 values for FM3A cells/ mean of EC50 values for Plasmodium falciparum. The format is functional, organism-based.

`CC1C(OC(=O)CCC(=O)O)O[C@@H]2O[C@]3(C)CC[C@H]4[C@H](C)CC[C@@H]1[C@@]24OO3` (some centres undefined) showed a negative logarithm of the IC50 (pIC50) of 9.21. As for `CC1C(O)O[C@@H]2OC3(C)CC[C@H]4[C@H](C)CC[C@@H]1[C@@]24OO3` (single isomer, unassigned), the negative-log IC50 (pIC50) was 8.96.

In turn, `COC1O[C@@H]2OC3(C)CC[C@H]4[C@H](C)CC[C@@H](C1C)[C@@]24OO3` (single isomer, unassigned) gave a pIC50 of 8.39. Take `C[C@@H]1CC[C@H]2C(Cn3ccnc3)C(O)O[C@@H]3OC4(C)CC[C@@H]1[C@]32OO4` (single isomer, unassigned): the pIC50 was 9.41. In turn, `CCOC1O[C@@H]2OC3(C)CC[C@H]4[C@H](C)CC[C@@H](C1C)[C@@]24OO3` (single isomer, unassigned) showed a pIC50 of 7.62. `C[C@@H]1CC[C@H]2C(Cn3ccnc3)C(=O)O[C@@H]3OC4(C)CC[C@@H]1[C@]32OO4` (single isomer, unassigned) had a pIC50 of 7.49.

Consider `C[C@@H]1CC[C@H]2C(CSc3ccccc3)C(=O)O[C@@H]3OC4(C)CC[C@@H]1[C@]32OO4` (single isomer, unassigned), for which the pIC50 is 7.70.

For `C=C1C(=O)O[C@@H]2OC3(C)CC[C@H]4[C@H](C)CC[C@@H]1[C@@]24OO3` (single isomer, unassigned), the pIC50 was 7.52. For `C[C@@H]1CC[C@H]2[C@@H](C)C(=O)O[C@@H]3O[C@@]4(C)CC[C@@H]1[C@]32OO4` [ARTEMISININ] the value was 8.30.
